Experiments:
Cocaine esterase = biological target: T1, Cocaine esterase (Homo sapiens, UniProt O00748); test: Inhibition of hCES2A in human liver microsome assessed as reduction in fluorescein diacetate hydrolysis preincubated for 10 mins followed by substrate addition measured after 20 mins by fluorescence analysis; type: microsomes
T1 sequence (O00748 whole entry): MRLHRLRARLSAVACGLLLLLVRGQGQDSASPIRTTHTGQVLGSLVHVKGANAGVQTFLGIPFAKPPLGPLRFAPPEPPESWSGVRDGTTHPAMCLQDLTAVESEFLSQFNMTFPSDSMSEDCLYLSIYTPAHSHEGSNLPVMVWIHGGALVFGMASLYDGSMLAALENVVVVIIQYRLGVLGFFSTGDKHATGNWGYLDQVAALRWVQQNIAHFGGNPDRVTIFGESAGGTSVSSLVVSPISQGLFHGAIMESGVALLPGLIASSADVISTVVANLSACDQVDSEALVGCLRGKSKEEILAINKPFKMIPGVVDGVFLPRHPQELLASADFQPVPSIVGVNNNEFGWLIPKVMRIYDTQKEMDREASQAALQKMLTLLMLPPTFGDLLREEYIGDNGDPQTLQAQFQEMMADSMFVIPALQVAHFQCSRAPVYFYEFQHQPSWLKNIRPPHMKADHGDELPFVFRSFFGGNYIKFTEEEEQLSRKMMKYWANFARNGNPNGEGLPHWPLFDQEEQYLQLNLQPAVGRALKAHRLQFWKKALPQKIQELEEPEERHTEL

Liver carboxylesterase 1 = biological target: T2, Liver carboxylesterase 1 (Homo sapiens, UniProt P23141); test: Inhibition of hCES1A in human liver microsome assessed as reduction in D-Iuciferin methyl ester hydrolysis preincubated for 10 mins followed by substrate addition measured after 10 mins by luminescence analysis; type: microsomes
T2 sequence (P23141 whole entry): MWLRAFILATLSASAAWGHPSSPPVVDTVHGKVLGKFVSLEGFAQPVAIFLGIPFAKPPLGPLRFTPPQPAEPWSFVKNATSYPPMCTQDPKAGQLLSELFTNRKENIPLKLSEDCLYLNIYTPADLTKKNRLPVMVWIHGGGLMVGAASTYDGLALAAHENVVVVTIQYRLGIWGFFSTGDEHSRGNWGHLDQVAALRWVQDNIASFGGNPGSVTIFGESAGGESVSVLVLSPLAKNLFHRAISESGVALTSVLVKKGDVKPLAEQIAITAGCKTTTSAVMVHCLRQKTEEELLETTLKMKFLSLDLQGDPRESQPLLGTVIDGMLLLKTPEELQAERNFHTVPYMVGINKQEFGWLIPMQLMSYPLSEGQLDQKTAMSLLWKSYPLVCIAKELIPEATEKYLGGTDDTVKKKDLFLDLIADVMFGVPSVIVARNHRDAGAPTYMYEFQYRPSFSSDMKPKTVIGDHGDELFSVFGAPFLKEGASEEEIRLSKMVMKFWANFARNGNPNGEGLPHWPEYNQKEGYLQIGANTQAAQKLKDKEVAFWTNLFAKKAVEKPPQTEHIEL

Cholinesterase = Cholinesterase (Homo sapiens, UniProt P06276); test: Inhibition of BChE in human plasma assessed as reduction in butyrylthiocholineiodide hydrolysis preincubated for 3 mins followed by substrate addition; type: cell-free
[1] = Metabolic stability at phase 1 in human liver microsomes assessed as half life at 10 uM by LC-UV analysis
[2] = Metabolic stability at phase 2 in human liver microsomes assessed as half life at 10 uM by LC-UV analysis

Cholinesterase, sequence (P06276 whole entry): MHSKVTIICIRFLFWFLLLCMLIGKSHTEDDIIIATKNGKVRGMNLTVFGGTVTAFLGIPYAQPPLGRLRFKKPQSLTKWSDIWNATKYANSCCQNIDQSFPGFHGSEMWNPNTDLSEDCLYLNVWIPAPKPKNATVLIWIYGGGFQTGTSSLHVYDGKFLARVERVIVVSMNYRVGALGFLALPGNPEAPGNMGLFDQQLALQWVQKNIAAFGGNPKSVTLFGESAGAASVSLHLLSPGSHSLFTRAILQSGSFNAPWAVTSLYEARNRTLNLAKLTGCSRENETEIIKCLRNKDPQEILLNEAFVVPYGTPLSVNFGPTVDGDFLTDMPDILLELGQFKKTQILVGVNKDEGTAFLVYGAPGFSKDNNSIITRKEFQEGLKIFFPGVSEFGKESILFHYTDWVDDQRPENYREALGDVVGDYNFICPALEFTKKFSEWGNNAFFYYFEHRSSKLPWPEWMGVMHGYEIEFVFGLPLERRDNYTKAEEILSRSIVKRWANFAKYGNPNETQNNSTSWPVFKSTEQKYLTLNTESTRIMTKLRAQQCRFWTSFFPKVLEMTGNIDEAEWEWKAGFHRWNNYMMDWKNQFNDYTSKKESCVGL

SMILES | IC50 (Cocaine esterase) | further results
O=C1/C(=C/c2ccc(O)cc2)Cc2ccc(O)cc21 | 5940 nM | 
COc1cc(/C=C2\Cc3ccc(OC(C)C)cc3C2=O)ccc1O | 2860 nM | 
COc1ccc(/C=C2\Cc3ccc(O)cc3C2=O)cc1 | 56000 nM | 
COc1ccc2c(c1)C(=O)/C(=C/c1ccc(O)c(OC)c1)C2 | 2910 nM | 
COc1ccc(/C=C2\Cc3ccc(O)cc3C2=O)c(OC)c1OC | 5230 nM | 
O=C1/C(=C/c2ccc(O)c(O)c2)Cc2ccc(O)cc21 | 2810 nM | 
COc1cc(/C=C2\Cc3ccc(N4CCCC4)cc3C2=O)ccc1O |  | IC50 (Liver carboxylesterase 1): > 100000 nM; IC50 (Cholinesterase): > 100000 nM; half-life at 10 µM [1]: 1.6 h; half-life at 10 µM [2]: 1.72 h

Further molecules by falling IC50 (Cocaine esterase), results first:

IC50 (Cocaine esterase) | SMILES | further results
1620 nM | CCCOc1ccc2c(c1)C(=O)/C(=C/c1ccc(O)c(OC)c1)C2 | 
1480 nM | COc1cc(/C=C2\Cc3ccc(N)cc3C2=O)ccc1O | 
1310 nM | COc1cc(/C=C2\Cc3ccccc3C2=O)ccc1O | 
1090 nM | COc1cc(/C=C2\Cc3ccc(O)cc3C2=O)ccc1O | 

From ChEMBL document CHEMBL4706604, “Design, synthesis and biological evaluation of indanone-chalcone hybrids as potent and selective hCES2A inhibitors” (Eur J Med Chem, 2021)
